Patent publication US12486290B2, “Isoindolinone and indazole compounds for the degradation of EGFR” (C4 THERAPEUTICS, INC., priority 2019, dated 2025)

How the values were obtained:
Assay type in all cases: cell-based
[1] = target: T1, EGFR T790M/L858R (NCI-H1975 cells) (Homo sapiens, UniProt P00533, L858R/T790M); test: EGFR (L858R) degradation analysis, Total EGFR (L858R) HTRF, NCI-H1975 cells; conditions: 6 hours
T1 construct: NCI-H1975 (harboring EGFR heterozygous T790M/L858R mutations); host or cells: NCI-H1975
T1 sequence (P00533 25-1210 T790M/L858R): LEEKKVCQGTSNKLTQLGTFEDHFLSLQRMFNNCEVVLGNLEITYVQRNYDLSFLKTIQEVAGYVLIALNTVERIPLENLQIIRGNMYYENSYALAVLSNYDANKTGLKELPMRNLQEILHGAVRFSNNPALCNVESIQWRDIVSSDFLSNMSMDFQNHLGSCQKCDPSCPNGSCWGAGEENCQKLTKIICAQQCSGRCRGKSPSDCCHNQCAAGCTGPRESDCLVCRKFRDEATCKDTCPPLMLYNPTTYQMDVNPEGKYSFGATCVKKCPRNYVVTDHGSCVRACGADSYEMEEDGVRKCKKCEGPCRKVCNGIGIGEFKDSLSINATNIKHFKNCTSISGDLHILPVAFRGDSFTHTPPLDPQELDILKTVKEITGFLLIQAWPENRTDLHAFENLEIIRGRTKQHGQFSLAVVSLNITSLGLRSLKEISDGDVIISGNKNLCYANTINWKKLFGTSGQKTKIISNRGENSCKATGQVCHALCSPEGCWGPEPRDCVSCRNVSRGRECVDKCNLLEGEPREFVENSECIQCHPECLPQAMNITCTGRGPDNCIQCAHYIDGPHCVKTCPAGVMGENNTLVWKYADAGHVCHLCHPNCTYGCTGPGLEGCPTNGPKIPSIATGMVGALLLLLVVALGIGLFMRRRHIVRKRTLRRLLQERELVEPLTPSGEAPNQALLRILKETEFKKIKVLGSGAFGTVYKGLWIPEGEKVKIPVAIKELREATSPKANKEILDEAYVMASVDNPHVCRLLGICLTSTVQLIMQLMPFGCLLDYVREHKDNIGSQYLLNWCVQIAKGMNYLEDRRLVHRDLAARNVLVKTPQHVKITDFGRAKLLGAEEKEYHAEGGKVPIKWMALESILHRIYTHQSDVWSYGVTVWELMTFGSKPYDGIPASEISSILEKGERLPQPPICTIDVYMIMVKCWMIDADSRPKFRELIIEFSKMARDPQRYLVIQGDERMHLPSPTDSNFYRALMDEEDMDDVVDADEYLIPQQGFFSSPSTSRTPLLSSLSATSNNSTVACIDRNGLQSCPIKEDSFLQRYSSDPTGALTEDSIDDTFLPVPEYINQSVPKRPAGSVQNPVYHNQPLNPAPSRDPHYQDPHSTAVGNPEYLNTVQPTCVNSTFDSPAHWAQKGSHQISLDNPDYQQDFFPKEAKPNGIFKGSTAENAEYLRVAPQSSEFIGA
Method in brief: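 Cells (10000/well NCI-H1975 and NCI-H1975+CS, 1000/well NCI-H3255) treated with 11-point half-log titrations from 10 μM top, in duplicate, for 6 hours at 37° C., 5% CO2. Total EGFR (L858R) quantified by HTRF FRET; untreated cells as negative and cell-free wells as positive control.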

[2] = target: T2, EGFR L858R (NCI-H3255 cells) (Homo sapiens, UniProt P00533, L858R); test: EGFR (L858R) degradation analysis, Total EGFR (L858R) HTRF, NCI-H3255 cells; conditions: 6 hours
T2 construct: NCI-H3255 (harboring EGFR heterozygous L858R mutation); host or cells: NCI-H3255
T2 sequence (P00533 25-1210 L858R): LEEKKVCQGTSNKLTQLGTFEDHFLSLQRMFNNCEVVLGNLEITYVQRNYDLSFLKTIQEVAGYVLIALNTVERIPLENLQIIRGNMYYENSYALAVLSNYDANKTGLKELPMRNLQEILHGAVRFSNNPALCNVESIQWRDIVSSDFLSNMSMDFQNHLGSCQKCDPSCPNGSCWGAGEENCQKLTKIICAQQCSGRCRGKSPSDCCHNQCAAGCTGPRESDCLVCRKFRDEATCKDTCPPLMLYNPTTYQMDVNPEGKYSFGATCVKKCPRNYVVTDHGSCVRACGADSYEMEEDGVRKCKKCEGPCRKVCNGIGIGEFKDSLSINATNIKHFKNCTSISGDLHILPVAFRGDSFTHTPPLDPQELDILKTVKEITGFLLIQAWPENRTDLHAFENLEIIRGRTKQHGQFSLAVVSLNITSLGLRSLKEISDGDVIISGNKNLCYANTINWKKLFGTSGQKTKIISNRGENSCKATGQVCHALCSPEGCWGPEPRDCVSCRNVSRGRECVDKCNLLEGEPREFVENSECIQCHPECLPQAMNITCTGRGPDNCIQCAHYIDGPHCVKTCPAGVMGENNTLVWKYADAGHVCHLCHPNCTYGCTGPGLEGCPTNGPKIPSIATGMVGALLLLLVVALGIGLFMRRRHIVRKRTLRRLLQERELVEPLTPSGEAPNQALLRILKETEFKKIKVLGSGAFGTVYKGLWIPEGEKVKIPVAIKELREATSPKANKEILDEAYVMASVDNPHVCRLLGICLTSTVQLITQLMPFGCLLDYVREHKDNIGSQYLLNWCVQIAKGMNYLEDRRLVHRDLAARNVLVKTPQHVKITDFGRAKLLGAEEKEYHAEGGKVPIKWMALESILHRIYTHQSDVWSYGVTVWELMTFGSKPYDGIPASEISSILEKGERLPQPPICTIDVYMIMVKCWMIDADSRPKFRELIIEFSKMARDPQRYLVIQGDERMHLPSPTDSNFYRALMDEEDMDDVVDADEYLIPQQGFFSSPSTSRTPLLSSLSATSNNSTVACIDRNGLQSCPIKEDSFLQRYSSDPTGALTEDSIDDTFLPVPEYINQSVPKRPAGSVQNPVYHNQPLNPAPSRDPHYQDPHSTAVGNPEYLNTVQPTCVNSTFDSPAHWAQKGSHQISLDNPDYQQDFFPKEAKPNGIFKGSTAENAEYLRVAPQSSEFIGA
Description: (§1) NCI-H1975 (harboring EGFR heterozygous T790M/L858R mutations) and NCI-H3255 (harboring EGFR heterozygous L858R mutation) were purchased from ATCC and NCI, respectively. NCI-H1975+CS (harboring EGFR heterozygous T/790M/L858R/C797S mutations) was generated using CRISPR technology to introduce the additional C797S mutation by Horizon Discovery. RPMI 1640 no-phenol red medium and fetal bovine serum (FBS) were purchased from Gibco (Grand Island, NY, USA). Cell culture flasks and 384-well microplates were acquired from VWR (Radnor, PA, USA). Total EGFR (L858R) HTRF assay kits were purchased from Cisbio (Bedford, MA, USA).
(§2) Degradation of EGFR protein containing L858R mutation was determined based on quantification of FRET signal using Total EGFR (L858R) HTRF assay kit. Test compounds were added to the 384-well plate from a top concentration of 10 μM with 11 points, half log titration in duplicates. NCI-H1975, NCI-H1975+CS or NCI-H3255 cells were added into 384-well plates at a cell density of 10000, 10000 or 1000 cells per well, respectively. The plates were kept at 37° C. with 5% CO2 for 6 hours. Cells treated in the absence of the test compound were the negative control. Positive control was set by wells containing all reagents but no cells. FRET signal was acquired on EnVision™ Multilabel Reader (PerkinElmer, Santa Clara, CA, USA).

[3] = target: T3, EGFR T790M/L858R/C797S (NCI-H1975+CS cells) (Homo sapiens, UniProt P00533, C797S/L858R/T790M); test: EGFR (L858R) degradation analysis, Total EGFR (L858R) HTRF, NCI-H1975+CS cells; conditions: 6 hours, read-out: H1975 C797S clone EGFR DC50
T3 construct: NCI-H1975+CS (harboring EGFR heterozygous T/790M/L858R/C797S mutations) was generated using CRISPR technology; host or cells: NCI-H1975+CS (CRISPR-edited NCI-H1975)
T3 sequence (P00533 25-1210 T790M/C797S/L858R): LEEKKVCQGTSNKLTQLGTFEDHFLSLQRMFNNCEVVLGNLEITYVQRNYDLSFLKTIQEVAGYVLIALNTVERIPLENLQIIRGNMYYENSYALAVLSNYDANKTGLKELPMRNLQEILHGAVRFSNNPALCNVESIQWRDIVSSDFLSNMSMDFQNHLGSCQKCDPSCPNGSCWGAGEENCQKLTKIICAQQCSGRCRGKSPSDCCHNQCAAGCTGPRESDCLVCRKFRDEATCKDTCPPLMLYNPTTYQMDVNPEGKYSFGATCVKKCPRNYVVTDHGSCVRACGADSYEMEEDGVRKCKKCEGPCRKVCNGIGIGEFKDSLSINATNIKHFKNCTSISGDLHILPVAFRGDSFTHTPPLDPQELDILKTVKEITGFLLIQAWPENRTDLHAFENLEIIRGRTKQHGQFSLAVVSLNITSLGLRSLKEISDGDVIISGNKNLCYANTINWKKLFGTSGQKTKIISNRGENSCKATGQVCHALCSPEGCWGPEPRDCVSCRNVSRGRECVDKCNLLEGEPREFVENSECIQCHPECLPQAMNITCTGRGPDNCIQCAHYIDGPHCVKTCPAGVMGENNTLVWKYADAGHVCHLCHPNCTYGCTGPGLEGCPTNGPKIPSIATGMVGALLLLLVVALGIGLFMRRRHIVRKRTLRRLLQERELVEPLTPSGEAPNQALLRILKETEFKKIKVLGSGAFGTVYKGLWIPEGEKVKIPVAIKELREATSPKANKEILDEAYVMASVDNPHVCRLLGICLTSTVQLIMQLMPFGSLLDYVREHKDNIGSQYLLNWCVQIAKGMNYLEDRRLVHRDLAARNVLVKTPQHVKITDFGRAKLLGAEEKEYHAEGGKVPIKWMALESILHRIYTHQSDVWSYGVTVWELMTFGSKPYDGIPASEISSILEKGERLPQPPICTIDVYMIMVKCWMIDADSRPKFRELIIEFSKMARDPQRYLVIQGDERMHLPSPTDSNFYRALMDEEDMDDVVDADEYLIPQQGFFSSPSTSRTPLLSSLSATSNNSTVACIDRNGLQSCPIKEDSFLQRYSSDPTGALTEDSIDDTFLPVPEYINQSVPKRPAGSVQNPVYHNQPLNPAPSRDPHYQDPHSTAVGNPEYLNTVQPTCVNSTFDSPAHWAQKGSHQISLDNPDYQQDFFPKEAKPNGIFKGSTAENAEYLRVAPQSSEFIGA
Description: as §1, §2

SMILES | DC50 [1] | DC50 [2] | DC50 [3]
O=C1CCC(Nc2ccc(C3CCN(CC(=O)N4CCC(Oc5ccc(-c6cc(F)c7c(c6)C(=O)N(C(C(=O)Nc6nccs6)c6ncn8c6CCC8)C7)cc5)CC4)CC3)cc2F)C(=O)N1 (stereo not drawn) [Compound 34, 2-(6,7-dihydro-5H-pyrrolo[1,2-c]imidazol-1-yl)-2-(6-(4-((1-(2-(4-(4-((2,6-dioxopiperidin-3-yl)amino)-3-fluorophenyl)piperidin-1-yl)acetyl)piperidin-4-yl)oxy)phenyl)-4-fluoro-1-oxoisoindolin-2-yl)-N-(thiazol-2-yl)acetamide] | 57 nM | 13 nM | 22 nM
Cn1nc(N2CCC(=O)NC2=O)c2ccc(C3CCN(CC(=O)N4CCN(c5ccc(-c6cc(F)c7c(c6)C(=O)N(C(C(=O)Nc6nccs6)c6ncn8c6CCC8)C7)cc5)CC4)CC3)cc21 (stereo not drawn) [Compound 17, 2-(6,7-dihydro-5H-pyrrolo[1,2-c]imidazol-1-yl)-2-(6-(4-(4-(2-(4-(3-(2,4-dioxotetrahydropyrimidin-1(2H)-yl)-1-methyl-1H-indazol-6-yl)piperidin-1-yl)acetyl)piperazin-1-yl)phenyl)-4-fluoro-1-oxoisoindolin-2-yl)-N-(thiazol-2-yl)acetamide] | 29 nM | 6 nM | 22 nM
O=C1CC[C@H](Nc2ccc(C3CCN(CC(=O)N4CC5(C4)CN(c4ccc(-c6cc(F)c7c(c6)C(=O)N(C(C(=O)Nc6nccs6)c6ncn8c6CCC8)C7)cc4)C5)CC3)c(F)c2)C(=O)N1 (stereo partly drawn) [Compound 48, 2-(6,7-dihydro-5H-pyrrolo[1,2-c]imidazol-1-yl)-2-[6-[4-[2-[2-[4-[4-[[(3S)-2,6-dioxo-3-piperidyl]amino]-2-fluoro-phenyl]-1-piperidyl]acetyl]-2,6-diazaspiro[3.3]heptan-6-yl]phenyl]-4-fluoro-1-oxo-isoindolin-2-yl]-N-thiazol-2-yl-acetamide] | 28 nM | 7 nM | 11 nM
O=C1CCC(Nc2ccc(C3CCN(CC(=O)N4CCN(c5ccc(-c6cc(F)c7c(c6)C(=O)N(C(C(=O)Nc6nccs6)c6ncn8c6CCC8)C7)cc5)CC4)CC3)cc2)C(=O)N1 (stereo not drawn) [Compound 5, 2-(6,7-dihydro-5H-pyrrolo[1,2-c]imidazol-1-yl)-2-[6-[4-[4-[2-[4-[4-[(2,6-dioxo-3-piperidyl)amino]phenyl]-1-piperidyl]acetyl]piperazin-1-yl]phenyl]-4-fluoro-1-oxo-isoindolin-2-yl]-N-thiazol-2-yl-acetamide] | 20 nM | 6 nM | 17 nM
O=C1CCC(Nc2ccc(C3CCN(CC(=O)N4CCC(Oc5ccc(-c6cc(F)c7c(c6)C(=O)N(C(C(=O)Nc6nccs6)c6ncn8c6CCC8)C7)cc5)CC4)CC3)c(F)c2)C(=O)N1 (stereo not drawn) [Compound 35, 2-(6,7-dihydro-5H-pyrrolo[1,2-c]imidazol-1-yl)-2-(6-(4-((1-(2-(4-(4-((2,6-dioxopiperidin-3-yl)amino)-2-fluorophenyl)piperidin-1-yl)acetyl)piperidin-4-yl)oxy)phenyl)-4-fluoro-1-oxoisoindolin-2-yl)-N-(thiazol-2-yl)acetamide] | 46 nM | 9 nM | 12 nM
O=C1CC[C@H](Nc2ccc(C3CCN(CC(=O)N4CCN(c5ccc(-c6cc(F)c7c(c6)C(=O)N(C(C(=O)Nc6nccs6)c6ncn8c6CCC8)C7)cc5)CC4)CC3)cc2)C(=O)N1 (stereo partly drawn) [Compound 6, 2-(6,7-dihydro-5H-pyrrolo[1,2-c]imidazol-1-yl)-2-[6-[4-[4-[2-[4-[4-[[(3S)-2,6-dioxo-3-piperidyl]amino]phenyl]-1-piperidyl]acetyl]piperazin-1-yl]phenyl]-4-fluoro-1-oxo-isoindolin-2-yl]-N-thiazol-2-yl-acetamide] | 22 nM | 7 nM | 8 nM
N#Cc1cc(NC2CCC(=O)NC2=O)ccc1C1CCN(CC(=O)N2CCC(Oc3ccc(-c4cc(F)c5c(c4)C(=O)N(C(C(=O)Nc4nccs4)c4ncn6c4CCC6)C5)cc3)CC2)CC1 (stereo not drawn) [Compound 37, 2-(6-(4-((1-(2-(4-(2-cyano-4-((2,6-dioxopiperidin-3-yl)amino)phenyl)piperidin-1-yl)acetyl)piperidin-4-yl)oxy)phenyl)-4-fluoro-1-oxoisoindolin-2-yl)-2-(6,7-dihydro-5H-pyrrolo[1,2-c]imidazol-1-yl)-N-(thiazol-2-yl)acetamide] | 46 nM | 16 nM | 19 nM
O=C1CC[C@@H](Nc2ccc(C3CCN(CC(=O)N4CCC(c5ccc(-c6cc(F)c7c(c6)C(=O)N(C(C(=O)Nc6nccs6)c6ncn8c6CCC8)C7)cc5)CC4)CC3)c(F)c2)C(=O)N1 (stereo partly drawn) [Compound 24, 2-(6,7-dihydro-5H-pyrrolo[1,2-c]imidazol-1-yl)-2-(6-(4-(1-(2-(4-(4-(((R)-2,6-dioxopiperidin-3-yl)amino)-2-fluorophenyl)piperidin-1-yl)acetyl)piperidin-4-yl)phenyl)-4-fluoro-1-oxoisoindolin-2-yl)-N-(thiazol-2-yl)acetamide] | 70 nM | 6 nM | 24 nM
N#Cc1cc(NC2CCC(=O)NC2=O)ccc1C1CCN(CC(=O)N2CCC(c3ccc(-c4cc(F)c5c(c4)C(=O)N(C(C(=O)Nc4nccs4)c4ncn6c4CCC6)C5)cc3)CC2)CC1 (stereo not drawn) [Compound 25, 2-(6-(4-(1-(2-(4-(2-cyano-4-((2,6-dioxopiperidin-3-yl)amino)phenyl)piperidin-1-yl)acetyl)piperidin-4-yl)phenyl)-4-fluoro-1-oxoisoindolin-2-yl)-2-(6,7-dihydro-5H-pyrrolo[1,2-c]imidazol-1-yl)-N-(thiazol-2-yl)acetamide] | 25 nM | 6 nM | 17 nM
O=C1CC[C@H](Nc2ccc(C3CCN(CC(=O)N4CCN(c5ccc(-c6cc(F)c7c(c6)C(=O)N(C(C(=O)Nc6nccs6)c6ncn8c6C[C@@H](F)C8)C7)cc5)CC4)CC3)c(F)c2)C(=O)N1 (stereo partly drawn) [Compound 44, 2-[6-[4-[4-[2-[4-[4-[[(3S)-2,6-dioxo-3-piperidyl]amino]-2-fluoro-phenyl]-1-piperidyl]acetyl]piperazin-1-yl]phenyl]-4-fluoro-1-oxo-isoindolin-2-yl]-2-[(6R)-6-fluoro-6,7-dihydro-5H-pyrrolo[1,2-c]imidazol-1-yl]-N-thiazol-2-yl-acetamide] | 22 nM | 6 nM | 12 nM
O=C1CCC(Nc2ccc(C3CCN(CC(=O)N4CCN(c5ccc(-c6cc(F)c7c(c6)C(=O)N(C(C(=O)Nc6ccccn6)c6ncn8c6CCC8)C7)cc5)CC4)CC3)cc2)C(=O)N1 (stereo not drawn) [Compound 19, 2-(6,7-dihydro-5H-pyrrolo[1,2-c]imidazol-1-yl)-2-(6-(4-(4-(2-(4-(4-((2,6-dioxopiperidin-3-yl)amino)phenyl)piperidin-1-yl)acetyl)piperazin-1-yl)phenyl)-4-fluoro-1-oxoisoindolin-2-yl)-N-(pyridin-2-yl)acetamide] | 50 nM | 13 nM | 20 nM
O=C1CCC(Nc2ccc(C3CCN(CC(=O)N4CCN(c5ccc(-c6cc(F)c7c(c6)C(=O)N(C(C(=O)Nc6nccs6)c6ncn8c6C[C@@H](F)C8)C7)cc5)CC4)CC3)cc2)C(=O)N1 (mixture of isomers) [Compound 43, (2RS)-2-[6-[4-[4-[2-[4-[4-[[(3RS)-2,6-Dioxo-3-piperidyl]amino]phenyl]-1-piperidyl]acetyl]piperazin-1-yl]phenyl]-4-fluoro-1-oxo-isoindolin-2-yl]-2-[(6R)-6-fluoro-6,7-dihydro-5H-pyrrolo[1,2-c]imidazol-1-yl]-N-thiazol-2-yl-acetamide] | 13 nM | 6 nM | 18 nM
O=C1CCC(Nc2ccc(C3CCN(CC(=O)N4CCN(Cc5ccc(-c6cc(F)c7c(c6)C(=O)N(C(C(=O)Nc6nccs6)c6ncn8c6CCC8)C7)cc5)CC4)CC3)c(F)c2)C(=O)N1 (stereo not drawn) [Compound 57, 2-(6,7-dihydro-5H-pyrrolo[1,2-c]imidazol-1-yl)-2-[6-[4-[[4-[2-[4-[4-[(2,6-dioxo-3-piperidyl)amino]-2-fluoro-phenyl]-1-piperidyl]acetyl]piperazin-1-yl]methyl]phenyl]-4-fluoro-1-oxo-isoindolin-2-yl]-N-thiazol-2-yl-acetamide] | 46 nM | 11 nM | 7 nM
